Test results reported in patent US11369565B2, “Amino-pyrimidine skeletal muscle modulators” (Cytokinetics, Inc., priority 2010, dated 2022).

System: rabbit skeletal myofibrils (approximately 90% fast fibers)
Experiment: Activation of fast skeletal myofibrils (PUMA coupled-enzyme ATPase assay at pCa25)
Format: biochemical
Conditions: concentration at which the compound increased the enzymatic activity by 40%; calcium at pCa25; PM12 buffer pH 6.8
Outline: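 Detergent-washed rabbit psoas myofibrils tested at calcium giving 25% of maximal rate (pCa25). ATPase activity tracked by pyruvate kinase/lactate dehydrogenase coupling, NADH oxidation read as absorbance at 340 nm, in PM12 buffer (12 mM Pipes, 2 mM MgCl2, 1 mM DTT, pH 6.8).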

CC(C)(Nc1ncc(-c2cccc(C(N)=O)n2)cn1)c1ncccc1Cl [6-(2-{[1-(3-chloro(2-pyridyl))-isopropyl]amino}pyrimidin-5-yl)pyridine-2-carboxamide]
Mean AC1.4: C (C=10-20 uM)

CC(C)(Nc1ncc(-c2cc(C(N)=O)ncn2)cn1)c1ncccc1Cl [6-(2-{[1-(3-chloro(2-pyridyl))-isopropyl]amino}pyrimidin-5-yl)pyrimidine-4-carboxamide]
Mean AC1.4: B (B=1-10 uM)

CC(C)(Nc1ncc(-c2cn3cc(C(N)=O)sc3n2)cn1)c1ncccc1Cl [6-(2-{[1-(3-chloro(2-pyridyl))-isopropyl}amino}pyrimidin-5-yl) imidazo[2,1-b]1,3-thiazoline-2-carboxamide]
Mean AC1.4: D (D=>20 uM)

O=c1cc(-c2cnc(NC[C@]3(c4ncccc4F)C[C@H](F)C3)nc2)[nH]c(=O)[nH]1 [6-[2-({[3-fluoro-1-(3-fluoro(2-pyridyl))cyclobutyl]methyl}amino)pyrimidin-5-yl]-1,3-dihydropyrimidine-2,4-dione]
Mean AC1.4: B (B=1-10 uM)

Oc1ccc(-c2cnc(NC[C@]3(c4ncccc4F)C[C@H](F)C3)nc2)nn1 [6-[2-({[3-fluoro-1-(3-fluoro(2-pyridyl))cyclobutyl]methyl}amino)pyrimidin-5-yl]pyridazin-3-ol]
Mean AC1.4: D (D=>20 uM)

Oc1ccc(-c2cnc(NC[C@]3(c4ncccc4F)C[C@H](F)C3)nc2)nc1 [6-[2-({[3-fluoro-1-(3-fluoro(2-pyridyl))cyclobutyl]methyl}amino)pyrimidin-5-yl]pyridin-3-ol]
Mean AC1.4: B (B=1-10 uM)

CC(=O)N1CCc2nc(NCC(C)(C)c3ccc(F)cc3)ncc2C1 [6-acetyl-2-{[2-(4-fluorophenyl)-2-methylpropyl]amino}-5,6,7,8-tetrahydropyridino[4,3-d]pyrimidine]
Mean AC1.4: D (D=>20 uM)

N#Cc1n[nH]c2cc(F)c(-c3cnc(NC4(c5ncccc5F)CCC4)nc3)cc12 [6-fluoro-5-(2-{[(3-fluoro(2-pyridyl))cyclobutyl]amino}pyrimidin-5-yl)-1H-indazole-3-carbonitrile]
Mean AC1.4: B (B=1-10 uM)

NC(=O)c1n[nH]c2cc(F)c(-c3cnc(NC4(c5ncccc5F)CCC4)nc3)cc12 [6-fluoro-5-(2-{[(3-fluoro(2-pyridyl))cyclobutyl]amino}pyrimidin-5-yl)-1H-indazole-3-carboxamide]
Mean AC1.4: A (A=<1 uM)

O=C1Cc2cccc(-c3cnc(NC[C@]4(c5ncccc5F)C[C@H](F)C4)nc3)c2N1 [7-[2-({[3-fluoro-1-(3-fluoro(2-pyridyl))cyclobutyl)]methyl}amino) pyrimidin-5-yl]indolin-2-one]
Mean AC1.4: B (B=1-10 uM)

O=C1NCc2cccc(-c3cnc(NC[C@]4(c5ncccc5F)C[C@H](F)C4)nc3)c21 [7-[2-({[3-fluoro-1-(3-fluoro(2-pyridyl))cyclobutyl]methyl}amino)pyrimidin-5-yl]isoindolin-1-one]
Mean AC1.4: B (B=1-10 uM)

Nc1nc(NC[C@]2(c3ncccc3F)C[C@H](F)C2)ncc1-c1ccccc1 [(4-amino-5-phenylpyrimidin-2-yl){[3-fluoro-1-(3-fluoro(2-pyridyl))cyclobutyl)]methyl} amine]
Mean AC1.4: B (B=1-10 uM)

CC(C)(Nc1ncc(-c2ccc3[nH]ncc3c2)cn1)c1ncccc1Cl [(5-(1H-indazol-5-yl)]pyrimidin-2-yl)[1-(3-chloro(2-pyridyl))-isopropyl]amine]
Mean AC1.4: A (A=<1 uM)

Fc1cccnc1C1(Nc2ncc(-c3ccc4[nH]ncc4c3)cn2)CCC1 [(5-(1H-indazol-5-yl)pyrimidin-2-yl)[(3-fluoro(2-pyridyl))cyclobutyl]amine]
Mean AC1.4: B (B=1-10 uM)

CC(C)(Nc1ncc(C2N=NN=N2)cn1)c1ncccc1Cl [(5-(5H-1,2,3,4-tetraazol-5-yl)pyrimidin-2-yl)[1-(3-chloro(2-pyridyl))-isopropyl]amine]
Mean AC1.4: D (D=>20 uM)

CC(C)(Nc1ncc(Br)cn1)c1ncccc1F [(5-bromopyrimidin-2-yl)[1-(3-fluoro(2-pyridyl))-isopropyl]amine]
Mean AC1.4: D (D=>20 uM)

CC(C)(Nc1ncc(Br)cn1)c1ccc(F)cc1 [(5-bromopyrimidin-2-yl)[1-(4-fluorophenyl)-isopropyl]amine]
Mean AC1.4: C (C=10-20 uM)

Fc1cccnc1C1(Nc2ncc(Br)cn2)CCC1 [(5-bromopyrimidin-2-yl)[(3-fluoro(2-pyridyl))cyclobutyl]amine]
Mean AC1.4: D (D=>20 uM)

Fc1ccc(C2(Nc3ncc(Br)cn3)CCC2)cc1 [(5-bromopyrimidin-2-yl)[(4-fluorophenyl)cyclobutyl]amine]
Mean AC1.4: D (D=>20 uM)

Fc1cccnc1C1(Nc2ncc3cc(Br)ccc3n2)CCC1 [(6-bromoquinazolin-2-yl)[(3-fluoro(2-pyridyl))cyclobutyl]amine]
Mean AC1.4: D (D=>20 uM)

Cc1cc(NC2CCCCC2)nc(N[C@H](C)c2ccccc2)n1 [((1R)-1-phenylethyl)[4-(cyclohexylamino)-6-methylpyrimidin-2-yl]amine]
Mean AC1.4: B (B=1-10 uM)

CC(C)(Nc1ncc(-c2ncc(CNC(=O)[C@H]3CCCN3)s2)cn1)c1ncccc1F [((2R)pyrrolidin1-2-yl)-N-{[2-(2-{[1-(3-fluoro(2-pyridyl))-isopropyl]amino}pyrimidin-5-yl)(1,3-thiazol-5-yl)]methyl}carboxamide]
Mean AC1.4: D (D=>20 uM)

CC(C)(Nc1ncc(-c2nc(CNC(=O)[C@H]3CCCN3)cs2)cn1)c1ncccc1F [((2R)pyrrolidin-2-yl)-N-{[2-(2-{[1-(3-fluoro(2-pyridyl))-isopropyl]amino}pyrimidin-5-yl)(1,3-thiazo-4-yl)]methyl}carboxamide]
Mean AC1.4: D (D=>20 uM)

CC(C)(Nc1ncc(-c2nc(CNC(=O)[C@@H]3CCCN3)cs2)cn1)c1ncccc1F [((2S)pyrrolidin-2-yl)-N-{[2-(2-{[1-(3-fluoro(2-pyridyl))-isopropyl]amino}pyrimidin-5-yl)(1,3-thiazol-4-yl)]methyl}carboxamide]
Mean AC1.4: D (D=>20 uM)

CC(C)(Nc1ncc(-c2ncc(CNC(=O)[C@@H]3CCCN3)s2)cn1)c1ncccc1F [((2S)pyrrolidin-2-yl)-N-{[2-(2-{[1-(3-fluoro(2-pyridyl))-isopropyl]amino}pyrimidin-5-yl)(1,3-thiazol-5-yl)]methyl}carboxamide]
Mean AC1.4: C (C=10-20 uM)

CC(C)(Nc1ncc(-c2ncc(CNC(=O)C3(N)CC3)s2)cn1)c1ncccc1F [(aminocyclopropyl)-N-{[2-(2-{[1-(3-fluoro(2-pyridyl))-isopropyl]amino}pyrimidin-5-yl)(1,3-thiazol-5-yl)]methyl)carboxamide]
Mean AC1.4: D (D=>20 uM)

CC(C)(C)OC(=O)NCc1cnc(-c2cnc(NCC3(c4ncccc4Cl)CCC3)nc2)s1 [(tert-butoxy)-N-({2-[2-({[(3-chloro(2-pyridyl))cyclobutyl]methyl}amino)pyrimidin-5-yl](1,3-thiazol-5-yl)}methyl)carboxamide]
Mean AC1.4: A (A=<1 uM)

CC(C)(C)OC(=O)NCc1cnc(-c2cnc(NCC3(c4ncccc4F)CCC3)nc2)s1 [(tert-butoxy)-N-({2-[2-({[(3-fluoro(2-pyridyl))cyclobutyl]methyl}amino)pyrimidin-5-yl](1,3-thiazol-5-yl)}methyl)carboxamide]
Mean AC1.4: B (B=1-10 uM)

CC(C)(C)OC(=O)NCc1cnc(-c2cnc(NCC3(c4ccccn4)CCC3)nc2)s1 [(tert-butoxy)-N-{[2-(2-{[(2-pyridylcyclobutyl)methyl]amino}pyrimidin-5-yl)(1,3-thiazol-5-yl)]methyl}carboxamide]
Mean AC1.4: B (B=1-10 uM)

CS(=O)(=O)NCc1cnc(-c2cnc(NCC3(c4ncccc4F)CCC3)nc2)s1 [({2-[2-({[(3-fluoro(2-pyridyl))cyclobutyl]methyl}amino)pyrimidin-5-yl](1,3-thiazol-5-yl)}methyl)(methylsulfonyl)amine]
Mean AC1.4: B (B=1-10 uM)

CC(=O)N1CC(NC(=O)c2ccc(F)c(-c3cnc(NC[C@]4(c5ncccc5F)C[C@H](F)C4)nc3)c2)C1 [N-(1-acetylazetidin-3-yl) {4-fluoro-3-[2-({[3-fluoro-1-(3-fluoro(2-pyridyl))cyclobutyl]methyl}aminopyrimidin-5-yl]phenyl}carboxamide]
Mean AC1.4: B (B=1-10 uM)

CC(=O)N1CC(NC(=O)c2cccc(-c3cnc(NC[C@]4(c5ncccc5F)C[C@H](F)C4)nc3)c2)C1 [N-(1-acetylazetidin-3-yl){3-[2-({[3-fluoro-1-(3-fluoro(2-pyridyl))cyclobutyl]methyl}amino)pyrimidin-5-yl]phenyl}carboxamide]
Mean AC1.4: B (B=1-10 uM)

CC(C)(Nc1ncc(-n2cc(C(=O)NCCC(N)=O)cn2)cn1)c1ncccc1Cl [N-(2-carbamoylethyl)[1-(2-{[1-(3-chloro)(2-pyridyl))-isopropyl]amino}pyrimidin-5-yl)pyrazol-4-yl]carboxamide]
Mean AC1.4: D (D=>20 uM)

CC(=O)NCCNC(=O)c1cnc(NCC2(c3ncccc3F)CCC2)nc1 [N-(2-{[2-({[(3-fluoro-2-pyridyl)cyclobutyl]methyl}amino)pyrimidin-5-yl]carbonylamino}ethyl)acetamide]
Mean AC1.4: D (D=>20 uM)

CC(C)(C)NC(=O)c1cc(-c2cnc(NC(C)(C)c3ncccc3Cl)nc2)cnn1 [N-(tert-butyl)[5-(2-{[1-(3-chloro(2-pyridyl))-isapropyl]amino}pyrimidin-5-yl)pyridazin-3-yl]carboxamide]
Mean AC1.4: D (D=>20 uM)

CC(=O)NCc1cnc(-c2cnc(NCC3(c4ncccc4Cl)CCC3)nc2)s1 [N-({2-[2-({[(3-chloro-2-pyridyl)cyclobutyl]methyl}amino)pyrimidin-5-yl]-1,3-thiazol-5-yl}methyl)acetamide]
Mean AC1.4: A (A=<1 uM)

CC(=O)NCc1cnc(-c2cnc(NCC3(c4ncccc4F)CCC3)nc2)s1 [N-({2-[2-({[(3-fluoro-2-pyridyl)cyclobutyl]methyl}amino)pyrimidin-5-yl]-1,3-thiazol-5-yl}methyl)acetamide]
Mean AC1.4: B (B=1-10 uM)

CC(C)(CNC(=O)c1cnc(NCC(C)(C)c2ccc(F)cc2)nc1)c1ccc(F)cc1 [N-[2-(4-fluorophenyl)-2-methylpropyl](2-{[2-(4-fluorophenyl)-2-methylpropyl]amino}pyrimidin-5-yl)carboxamide]
Mean AC1.4: D (D=>20 uM)
